Assay results published in patent US20130158264A1, “Polymorphs of OSI-906” (priority 2010, published 2013).
Entries after “also recorded” stand apart in the source; their conditions may differ.

What was measured:
Type in all cases: physicochemical
[1] = Gravimetric moisture sorption; conditions: for water adsorbed: 25° C.; for XRPD form of the dried solid following moisture sorption analysis: dried at 60° C./0% RH after the experiment; for stability upon desorption (loss of water): humidity reduced below 15%
Experimental: Gravimetric Moisture Sorption: Gravimetric moisture sorption experiments were carried out on selected materials by first drying the sample at 40% RH and 25° C. until an equilibrium weight was reached or for a maximum of four hours. The sample was then subjected to an isothermal (25° C.) adsorption scan from 40 to 90% RH in steps of 10%. The sample was allowed to equilibrate to an asymptotic weight at each point for a maximum of four hours. Following adsorption, a desorption scan from 85 to 0% RH (at 25° C.) was run in steps of −10% again allowing a maximum of four hours for equilibration to an asymptotic weight. An adsorption scan was then performed from 0% RH to 40% RH in steps of +10% RH. The sample was then dried for 1-2 hours at 60° C. and the resulting solid analyzed by XRPD.

[2] = Additional experiments to isolate OSI-906 solid forms (desiccant storage, exposure to lab humidity)
Experimental: Form C was confirmed to be a monohydrate of OSI-906 by gravimetric moisture sorption analysis. The solid form adsorbed approximately 4.2 wt % water at 30% RH which is consistent with the theoretical water content (4.1 wt %) of a monohydrate of OSI-906 (See FIG. 47). Upon desorption, hysteresis was observed between 25% RH and 5% RH. […] Based on these findings, an additional experiment was conducted in an effort to isolate this new crystalline form. An XRPD substrate containing Form C was placed in a desiccator at room temperature. After overnight storage, the slide was analyzed immediately by XRPD upon removal from the environment and brief exposure (<10 min) to the lab humidity (40-50% RH).

[3] = DSC isothermal hold at 105° C. followed by XRPD; conditions: held at 105° C. for five minutes
Experimental: Differential Scanning Calorimetry Analysis:
Differential scanning calorimetry (DSC) analyses were carried out on the samples “as is”. Samples were weighed in an aluminum pan, covered with a pierced lid, and then crimped. Analysis conditions were 30-105, 30-300, 30-350° C. at 10° C./min. In addition, isothermal holds were performed for a duration of five minutes at 105° C. and 200° C.
(See FIG. 49). In an effort to elucidate the additional thermal events, additional DSC experiments were conducted. Form C was held at 105° C. for five minutes, cooled to room temperature and then reheated to the same temperature. […] The isothermal hold experiment was repeated and the sample then exposed to the lab environment (˜40-50% RH) overnight. […] These observations are consistent with the results previously presented following storage of Form C under desiccant conditions.

[4] = Slurry experiments (form conversion by XRPD)
Experimental: Slurry Experiments: Approximately 20-50 mg of select crystalline forms were weighed to individual 8 mL vials equipped with a magnetic stir bar. Either THF, water, EtOH, (80:20) EtOH:Water or IPA was added to obtain a free flowing slurry. After 3, 5, 7 and 11 days of equilibration at 50° C. or ambient temperature, solid from each slurry was recovered by centrifuge filtration through 0.45 μm nylon filters. The isolated solids were analyzed by XRPD to check for form conversion. […] (Table 22).

[5] = Thermal stress experiments (Forms B, D, E, and F) in vacuum oven
Experimental: Thermal Stress Experiments (Forms B, D, E, and F)
Solids were stressed under different temperature (40° C. or 80° C.) in a vacuum oven for a measured time period.

[6] = Solid-state stability under storage conditions (XRPD)
Experimental: Solid-State Stability: Approximately 50 mg of Form A or Forms C+D were weighed to individual 8 mL vials and placed uncapped in the following storage conditions: 40° C. under vacuum, 80° C. under vacuum, desiccant, 25° C./60% RH and 40° C./75% RH. […] (Table 21). To assess the stability of Form A, the solid form was stored at different environmental conditions as described herein. Approximately 50 mg of Form A was weighed to 8 mL vials and placed uncapped in the following storage conditions: 40° C. under vacuum, 80° C. under vacuum, desiccant, 25° C./60% RH and 40° C./75% RH. After 24 hours and seven days of equilibration the solids were analyzed by XRPD. (See Table 21).

[7] = (80:20) EtOH:Water, prolonged equilibration at ambient and elevated temperature
[8] = water, prolonged equilibration at ambient and elevated temperature

Row | SMILES | water adsorbed ([1]; 60% RH) | XRPD form of the dried solid following moisture sorption analysis [1] | stability upon desorption (loss of water) [1] | form stability in slurry [4, 7] | form stability in slurry ([4]; EtOH, ambient temperature) | form stability in slurry ([4]; EtOH, elevated temperature) | form stability in slurry ([4]; IPA) | form stability in slurry ([4]; THF) | form stability in slurry [4, 8] | XRPD Result after thermal stress ([5]; 40° C., 3 d) | further results
1 | CC1(O)CC(c2nc(-c3ccc4ccc(-c5ccccc5)nc4c3)c3c(N)nccn23)C1 (stereo not drawn) [Form A, cis-3-[8-amino-1-(2-phenyl-quinolin-7-yl)-imidazo[1,5-a]pyrazin-3-yl]-1-methylcyclobutanol] | 0.2 wt % | consistent with the initial form |  |  |  |  |  |  |  |  | hygroscopicity by gravimetric moisture sorption analysis [1]: non-hygroscopic; water adsorbed ([1]; 90% RH): 0.3 wt %
2 | CC1(O)CC(c2nc(-c3ccc4ccc(-c5ccccc5)nc4c3)c3c(N)nccn23)C1 (stereo not drawn) [Form C, cis-3-[8-amino-1-(2-phenyl-quinolin-7-yl)-imidazo[1,5-a]pyrazin-3-yl]-1-methylcyclobutanol] |  | mixture of Form C and an unidentified crystalline form; also recorded: mixture of Forms C+I | not stable | stable | exhibiting stability | conversion to Forms A or E | conversion to Form A | conversion to Form A | stable |  | XRPD form after desiccant storage ([2]; overnight in a desiccator at room temperature): Form I; water adsorbed ([1]; 30% RH): approximately 4.2 wt %; XRPD form after DSC isothermal hold [3]: indicative of Form C; XRPD form after slurry ([4]; THF, room temperature, 11 day): Form A
3 | CC1(O)CC(c2nc(-c3ccc4ccc(-c5ccccc5)nc4c3)c3c(N)nccn23)C1 (stereo not drawn) [Form D, cis-3-[8-amino-1-(2-phenyl-quinolin-7-yl)-imidazo[1,5-a]pyrazin-3-yl]-1-methylcyclobutanol] | approximately 3.9 wt % | mixture of Forms C and D | not stable | conversion to Form C | Form C | converting to either Form A or E | conversion to Form A | conversion to Form A | stable | Form C | solid-state stability (summary in words) ([6]; one and seven days at 25° C./60% RH, 40° C./75% RH and under desiccant conditions): exhibited stability; solid-state stability (summary in words) ([6]; one and seven days at elevated temperature drying conditions (40° C. or 80° C. under vacuum)): conversion to Form C
4 | CC1(O)CC(c2nc(-c3ccc4ccc(-c5ccccc5)nc4c3)c3c(N)nccn23)C1 (stereo not drawn) [Form F, cis-3-[8-amino-1-(2-phenyl-quinolin-7-yl)-imidazo[1,5-a]pyrazin-3-yl]-1-methylcyclobutanol] |  |  |  |  |  |  |  |  |  | Form C | XRPD Result after thermal stress ([5]; 80° C., overnight): Form C
5 | CC1(O)CC(c2nc(-c3ccc4ccc(-c5ccccc5)nc4c3)c3c(N)nccn23)C1 (stereo not drawn) [Form I, cis-3-[8-amino-1-(2-phenyl-quinolin-7-yl)-imidazo[1,5-a]pyrazin-3-yl]-1-methylcyclobutanol] |  |  |  |  |  |  |  |  |  |  | XRPD form after exposure to lab humidity ([2]; 1 hour, lab humidity 40-50% RH): conversion to Form C
